According to patent US9388215B2, “Compositions and methods of using islet neogenesis peptides and analogs thereof” (SHENZHEN HIGHTIDE BIOPHARMACEUTICAL, LTD., priority 2013, dated 2016):

Experiments:
[1] = system: STZ induced diabetic mice; assay: Efficacy in streptozotocin (STZ) induced diabetic mice model; format: in vivo, mouse
Experimental: After acclimatization in the animal facility for one week, 6-8 weeks old C57BL/6J mice were administered low dose STZ at 40 mg/kg in citrate buffer for 5 consecutive days to establish a T1D animal model. Mice with blood glucose greater than 16.7 mmol/L at 5 days post last STZ injection were included in the study. These mice were then treated with INGAP-PP (Peptide 1) or Peptide 7 at the doses of 5 mg/kg (2.5 mg/kg, bid (twice a day)) or 25 mg/kg (12.5 mg/kg, bid) for 20 days before sacrifices. Two additional groups of diabetic mice were administered either saline or a peptide (Peptide 3) composed of a scrambled sequence of amino acids from Peptide 1 as control groups. Blood glucose and insulin levels were measured, and 20 days post the last dosing of test agents, an oral glucose tolerance test (OGTT) was performed in 6 hour fasted animals to determine the effect of Peptide 1 and Peptide 7. Blood samples obtained from the tail cut for glucose determination were detected with an ACCU-CHEK™ glucometer (Roche, ACCU-CHEK® Active), and insulin levels were determined with Rat/Mouse Insulin Elisa kit (Millipore, Billerica, Mass. USA). For the OGTT, after the measurement of the basal glucose concentration (T=−30 min), mice received an oral glucose challenge at 2 g/kg and glucose values were determined by glucometer at 0, 15, 30, 60, 90 and 120 min.

[2] = system: normal C57BL/6J mice; assay: Induction of small β-cell clusters in normal C57BL/6J mice (islet size distribution); format: in vivo, mouse
Experimental: After a 1-week acclimation, C57BL/6J female mice were randomly divided into 4 groups. The two control groups received either 10 mL/kg sterile normal saline (n=4) or scrambled peptide (Peptide 3, 25 mg/kg) (n=5) via subcutaneous injection for 10 days. The other two groups received INGAP-PP (Peptide 1) or INGAP-PP analog Peptide 7 at a dose of 25 mg/kg per day respectively (n=7 per group) for the same period. Body weight and 6 hour fasting blood glucose were measured before treatment and after the last dosing of treatment. Plasma and pancreatic insulin were also measured at the end of the study. On day 11, the pancreas was removed from each animal, cleared of fat and lymph nodes, weighed, and fixed in 10% neutral buffered formalin (NBF) for no longer than 24 hours before processing for morphometric analysis.
Immunohistochemistry analysis was used to determine pancreatic islet size distribution.

[3] = system: ARIP cells; assay: ARIP cell proliferation (BrdU ELISA / CellTiter-Glo); format: cell-based, rat; conditions: 100 nM peptide; compared to INGAP scrambled peptide and INGAP-PP; FIG. 1
Experimental: To measure cell proliferation, a bromodeoxyuridine (BrdU) ELISA assay was performed. Briefly, ARIP cells (ATCC (American Type Culture Collection), Manassas Va. USA), a rat pancreatic ductal cell line, were cultured in F-12K medium (Gibco-BRL, Gaithersburg, Md., USA) containing 10% fetal bovine serum (FBS; HyClone, Thermo Fisher Scientific Inc.; Waltham Mass. USA), 100 μg/ml streptomycin and 100 μg/ml penicillin in a cell incubator. ARIP cells were seeded into 96-well culture plates at 8000 or 0 (as blank control) cells/well in a volume of 50 μl cell culture medium and incubated overnight for the following experiments. On the second day, after replacing the medium with medium without serum, 50 μl serum-free cell culture medium containing test peptides at a series concentrations (final concentrations were 10 μM, 5 μM, 1 μM, 500 nM, 100 nM, 50 nM, 10 nM and 1 nM) were added to seeded cells. Medium without compound was added to negative control and background control wells. […] The absorbance at 450 nm (reference wavelength 690 nm) on an EnVision™ plate reader (Perkin Elmer, Boston Mass.) within 5 min after adding the stop solution was measured.
To test for cell viability, a CellTiter-Glo™ (CTG) assay (Promega, Madison Wis.) was performed. […] Luminescence signal was quantified on an EnVision™ plate reader after a 10 minute incubation at room temperature.

[4] = Peptide stability in culture medium (F-12K, 37° C., HPLC); format: physicochemical; conditions: F-12K medium, 0.25 mg/mL, 0-72 hours, FIG. 2, FIG. 11
Experimental: To determine the stability of peptides in culture medium, a certain amount of selected peptides was accurately weighed and dissolved in distilled water to 5 mg/mL as a stock solution. The stock solution was diluted to 0.25 mg/mL with F-12K medium (Gibco-BRL, Gaithersburg, Md., USA) as working solution. A volume of 100 μL of each working solution was transferred into individual sample vials. The sample vials were incubated in a 37° C. incubator for 0, 24, 48 and 72 hours before being analyzed and quantitated by HPLC. […]

H-IGLHDPSHGTLPAGS-OH [Peptide 7, H-IGLHDPSHGTLPAGS-OH]
effect on body weight or pancreas weight ([1]; 5 mg/kg or 25 mg/kg for 20 days): did not affect body weight or pancreas weight
plasma insulin levels vs saline controls ([1]; 25 mg/kg dose group, end of the 20-day period, FIG. 6B): significantly different from saline controls and almost restored to the level of the naive group
glucose tolerance (OGTT, AUC of glucose) ([1]; FIG. 6C): improved glucose tolerance
blood glucose levels vs saline control group ([1]; day 21 of treatment, FIG. 6A): Significant differences in blood glucose levels
number of islets, islet size (Log [μm^2]) ranging from 2.1 to 0.7 ([2]; normal female C57BL/6J mice, 25 mg/kg per day, 10 days, versus naive/control group, FIG. 7): numbers increased significantly
effect on body weight, blood glucose, plasma insulin, pancreas insulin, pancreas weight ([2]; normal mice, 25 mg/kg per day sc for 10 days, compared to saline group): did not affect body weight, blood glucose, plasma insulin, pancreas insulin, or pancreas weight
percentage increase in cell number (ARIP cell proliferation) [3]: significantly higher percentage increase in cell number
stability in culture medium [4]: significantly more stable than INGAP-PP peptide in culture medium
